Test results from publication PMC11289669, “BAR502/fibrate conjugates: synthesis, biological evaluation and metabolic profile” (Frontiers in Chemistry, 2024).
Values joined by “and” are separate entries in the source; they are usually repeats but may differ in a detail not shown here. Equal entries are not always repeated.

Legend:
[1] = molecular target: T1, FXR (Homo sapiens, UniProt Q96RI1); test: FXR transactivation (luciferase reporter) assay in HepG2 cells; format: cell-based; details: HepG2 cells
T1 construct: expressed in transfected cells; host or cells: HepG2 (the text says EC50 dose-response curves were run in HEK-293T)
T1 sequence (Q96RI1 1-486): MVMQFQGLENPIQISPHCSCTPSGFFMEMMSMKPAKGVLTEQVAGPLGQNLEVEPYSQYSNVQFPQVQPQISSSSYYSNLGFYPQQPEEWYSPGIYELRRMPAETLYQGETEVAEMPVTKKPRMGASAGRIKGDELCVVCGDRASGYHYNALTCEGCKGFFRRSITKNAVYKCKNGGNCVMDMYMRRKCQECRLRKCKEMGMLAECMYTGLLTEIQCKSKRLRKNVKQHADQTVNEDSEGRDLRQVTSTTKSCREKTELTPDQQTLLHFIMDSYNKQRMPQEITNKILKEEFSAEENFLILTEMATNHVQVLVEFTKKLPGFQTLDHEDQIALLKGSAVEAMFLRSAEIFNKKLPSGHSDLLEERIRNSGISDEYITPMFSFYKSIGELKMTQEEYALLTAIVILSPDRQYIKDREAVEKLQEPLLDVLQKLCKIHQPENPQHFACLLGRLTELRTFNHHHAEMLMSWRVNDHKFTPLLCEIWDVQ
T1 sequence (P19793 1-462 partner): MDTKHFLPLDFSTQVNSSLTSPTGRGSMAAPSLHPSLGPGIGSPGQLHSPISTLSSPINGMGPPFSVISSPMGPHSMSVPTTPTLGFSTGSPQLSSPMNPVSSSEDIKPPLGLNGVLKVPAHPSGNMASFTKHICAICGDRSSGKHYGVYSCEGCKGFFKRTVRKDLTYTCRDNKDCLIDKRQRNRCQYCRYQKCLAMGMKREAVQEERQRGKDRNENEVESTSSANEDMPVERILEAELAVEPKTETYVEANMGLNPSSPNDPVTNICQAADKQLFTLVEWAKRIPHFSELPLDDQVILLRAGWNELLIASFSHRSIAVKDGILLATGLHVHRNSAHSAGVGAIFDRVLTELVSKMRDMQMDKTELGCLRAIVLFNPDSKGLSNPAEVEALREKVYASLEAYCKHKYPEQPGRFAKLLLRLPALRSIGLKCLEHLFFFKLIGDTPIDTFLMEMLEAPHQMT
Method: HepG2 and HEK-293T cells were cultured at 37 °C in minimal essential medium (MEM) and Dulbecco’s Modified Eagle Medium (DMEM) respectively, supplemented with 10% fetal bovine serum, 1% L-glutamine, 100 U/mL penicillin, and 100 μg/mL streptomycin. To investigate FXR-mediated transactivation, the HepG2 cells were transfected with 200 ng of the reporter vector p (hsp27)TK-Luc containing the FXR response element IR1 cloned from the promoter of heat shock protein 27 (hsp27), plus 100 ng pSG5-FXR, 100 ng pSG5-RXR, and 100 ng pGL4.70 Renilla. To evaluate GPBAR1 mediated transactivation, HEK-293T cells were transfected with 200 ng of human pGL4.29 (Promega), a reporter vector containing a cAMP response element (CRE) that drives the transcription of the luciferase reporter gene luc2P, with 100 ng of pCMVSPORT6-human GPBAR1, and with 100 ng of pGL4.70. At 24 h post-transfection, cells were stimulated 18 h with 10 μM TLCA (taurolithocholic acid a GPBAR1 agonist) or CDCA (FXR agonist) and compounds. To calculate the EC50 on FXR and GPBAR1, dose-response curves were performed in HEK-293T cells transfected as described above and then treated with increasing concentrations of compounds (from 0.1 to 50 µM). After treatments, cells were lysed in 100 μL of lysis buffer (25 mM Tris-phosphate, pH 7.8; 2 mM DTT; 10% glycerol; 1% Triton X-100), and 10 μL of cellular lysate was assayed for luciferase activity using the Firfly &Renilla Luciferase assay kit (Biotium). Luminescence was measured using Glomax 20/20 luminometer (Promega). Luciferase activities were assayed and normalized with Renilla activities.

[2] = molecular target: T2, PPARα (Homo sapiens, UniProt Q07869); test: AlphaScreen coactivator (SRC-1) recruitment assay on PPARα; format: biochemical; details: AlphaScreen SRC-1 recruitment; compounds at 50 µM (footnote); fenofibrate = 100%
T2 construct: 20 nM PPARα LBD GST fused (Thermo Scientific); purchased Thermo Scientific
T2 sequence (Q07869 239-466 limits assumed): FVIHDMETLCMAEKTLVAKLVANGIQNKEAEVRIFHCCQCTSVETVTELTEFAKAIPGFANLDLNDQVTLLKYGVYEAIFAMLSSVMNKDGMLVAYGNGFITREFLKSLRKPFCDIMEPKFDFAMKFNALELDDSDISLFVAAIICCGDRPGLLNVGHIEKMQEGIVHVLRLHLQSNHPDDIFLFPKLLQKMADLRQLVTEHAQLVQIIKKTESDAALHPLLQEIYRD
Method: Compounds’ ability to mediate cofactor recruitment was evaluated by employing AlphaScreen GST Detection Kit (PerkinElmer). Particularly, FXR agonism was evaluated employing 10 nM FXR-LBD GST-fused (Thermo Scientific) and 30 nM of biotinylated SRC1 peptide ([…]) in the presence of 20 μg/mL donor and acceptor beads and in buffer containing 50 mM Tris-HCl (pH7.4), 20 mM KCl, 1 mM DTT, and 0.1% BSA. For PPARα assay, a buffer containing 50 mM MOPS, 50 mM NaF, 0.05 mM CHAPS, and 0.05% BSA (pH = 7.4) was used, and 20 nM PPARα LBD GST fused (Thermo Scientific) and 60 nM of biotinylated SRC1 peptide were employed. Both acceptor and donor beads were added to reach 20 μg/mL final concentration. Incubations were performed in a final volume of 25 μL employing 384 wells Optiplate and Alpha signal was measured with Envision 2,105 (Perkin Elmer) multimode plate reader. […]

[3] = Chemical stability in HCl buffer, PBS buffer and culture medium by LC-MS; format: physicochemical; details: 10 μM
Method: (§1) Chemical stability in HCl Buffer, PBS buffer and culture medium (EMEM) was evaluated by LC-MS dissolving compound 1 at 10 μM (final concertation) in cited buffers and injecting aliquots removed from incubations at different time points. Microsomal stability was evaluated employing 50 mM potassium phosphate buffer (pH 7.4) containing 0.15 mg of Human liver microsomes (Sigma-Aldrich, St. Louis, MO, United States) 5 mM MgCl2, 1 mM NADPH, 5 mM glucose 6-phosphate, 0.4 U·mL^−1 glucose 6-phosphate dehydrogenase. Compounds were tested at 1 µM final concentration. Aliquots, removed at different time points, were diluted with ice-cold acetonitrile and analyzed by LC-MS.

[4] = In cell permeation and metabolism in HepG2 cells (LC-MSMS); format: in vitro ADME, human; details: 0–480 min
Method: HepG2 cells were treated with compound 1, BAR502 or clofibrate. At different time points (0–480 min) culture mediums and cells pellets were collected, extracted by adding ice-cold acetonitrile and analyzed by LC-MSMS.

[5] = Microsomal stability in human liver microsomes; format: in vitro ADME; details: pH 7.4, 1 µM
Method: as §1

Row | Structure (SMILES) | EC50 [1] [nM] | PPARα efficacy (% vs. fenofibrate) [2] | Chemical stability in HCl buffer ([3]; HCl buffer, 2h) | Chemical stability in PBS buffer ([3]; PBS buffer pH 7.4, 8 h) | Chemical stability in culture medium ([3]; culture medium (EMEM), 8 h) | Cell permeation (amount in cell pellets) compared to BAR502 [4] | Hydrolysis to clofibric acid in cells compared with clofibrate [4] | microsomal CLint at 1 µM [5] [µL/min/mg] | half-life at 1 µM ([5]; read-out: t1/2 in human microsomes) [min]
1 | CC[C@H]1[C@@H](O)[C@@H]2[C@H](CC[C@]3(C)[C@@H]([C@H](C)CCO)CC[C@@H]23)[C@@]2(C)CC[C@@H](O)C[C@@H]12 [BAR502, 6α-ethyl-3α,7α-dihydroxy-24-nor-5β-cholan-23-ol] | 2000 ± 200 | 36% and 36 ± 12% | – | – | – | – | – | – | –
2 | CC[C@@H]1C2C[C@H](O)CC[C@]2(C)C2CC[C@@]3(C)C(CC[C@@H]3[C@H](C)CCOC(=O)C(C)(C)Oc3ccc(Cl)cc3)C2[C@@H]1O (stereo partly shown) [Compound 1] | 2800 ± 10 | – | stable | stable | stable | higher cell permeation | hydrolyzed more slowly | 87 | 27
